One test relates to PC3 cells. Nature of the test: Antiproliferation screen assay, resazurin, 72 h. The class given is cell-based, human. Conditions: 50 μM. On the technique in general: Resazurin is reduced to fluorescent resorufin, in cell work by metabolically active cells.
In test [1] the target is T1, hMAO-A (Homo sapiens, UniProt P21397).
T1 construct: purchased Sigma-Aldrich Co. (St. Louis, MO, USA)
T1 sequence (P21397 1-527): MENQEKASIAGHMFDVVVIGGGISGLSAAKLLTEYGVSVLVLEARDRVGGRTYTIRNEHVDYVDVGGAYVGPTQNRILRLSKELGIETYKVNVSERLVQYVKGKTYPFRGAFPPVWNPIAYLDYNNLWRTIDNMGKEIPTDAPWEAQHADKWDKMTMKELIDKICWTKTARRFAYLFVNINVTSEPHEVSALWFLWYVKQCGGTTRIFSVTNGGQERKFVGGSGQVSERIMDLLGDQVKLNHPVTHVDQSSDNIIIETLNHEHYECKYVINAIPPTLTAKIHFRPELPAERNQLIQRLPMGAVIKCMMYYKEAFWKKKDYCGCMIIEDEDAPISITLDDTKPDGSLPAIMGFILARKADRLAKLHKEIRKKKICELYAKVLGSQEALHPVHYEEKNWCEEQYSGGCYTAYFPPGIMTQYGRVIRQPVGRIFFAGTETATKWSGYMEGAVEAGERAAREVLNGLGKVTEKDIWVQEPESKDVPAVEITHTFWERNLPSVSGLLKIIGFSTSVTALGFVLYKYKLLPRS
Nature of the test: MAO-Glow luminescence screen of KKRs at 100 μM. The class given is biochemical. Particulars: from screen at 100 μM, 37 °C, 60 min, LDS 40 μM. The procedure: We optimized our control hMAO-A and hMAO-B isozymes reactions in the incubation condition, at 37 °C for 1 h, by performing a luminescence assay using the MAO-Glow™ kit. Upon arrival, each isozyme was diluted with 10 mM HEPES in cold HBSS of pH 7.4. Afterward, the diluted isozymes were kept at −80 °C until use. Enzyme concentration optimization was accomplished by testing ten 2X serially diluted hMAO-A and hMAO-B concentrations for a final range of 7.00–0.01 U/mL each. The tested isozymes were incubated with LDS of 40 and 4 μM for isozymes A and B, respectively (recommended by Promega protocol), and a maximum of used DMSO of 1% final concentration. Different isozyme concentrations reactions at their initial velocities were monitored. Consequently, their required concentrations were defined to be 0.44 U/mL each. Additionally, ten different LDS concentrations, ranging from 0.3–150 μM, were monitored for optimizing and validating the linearity of the initial reaction for the hMAO-A mode of action. Subsequently, we chose a saturated substrate of 75 μM as a required concentration for the hMAO-A enzyme kinetic reactions.
The inhibitory effects of the synthesized KKRs of hMAO-A and B were tested by measuring the decrease in arbitrary light units (ALU) signal produced by the optimized isozymes using the MAO-Glow™ Assay at 37 °C. In this assay, DMSO stock for each KKR compound was diluted with a reaction buffer of pH 7.4 to make a 4X working solution for a maximum final concentration of 100 μM and ≤1% DMSO. The experiments were run in the absence and presence of 4X the miscellaneous standards of MAO-BIs (DEP, PARG, and SAF) and MAO-AIs (PIRL and CLORG), with similar concentrations. In white opaque 96-well microplates, 12.5 μL of each compound was plated at RT and was followed by 25 μL of 2X cold hMAO-A or hMAO-B, for a final concentration of 0.44 U/mL. A related buffer substituted each isozyme to make the blank wells and substituted each compound to make the negative control wells. Following this, we added 12.5 μL of 4X LDS to make a final substrate concentration of 40- and 4-μM for hMAO-A and hMAO-B, respectively. All screen plates were incubated at 37 °C for 60 min. The plates of 50 μL/well were then taken out from the incubator, and their reactions were stopped by an equal volume of 50 μL of reporter luciferin detection reagent (RLDR). After 30 min, the luminescence signals for all plates were read on a Synergy HTX Multi-reader from Bio-Tek (Winooski, VT, USA).

For test [2], the target named is T1, hMAO-A. Nature of the test: Michaelis–Menten kinetics / mode of inhibition (MAO-Glow, LDS substrate). Conditions: for Alpha parameter (mixed model of enzyme inhibition): GraphPad Prism mixed model; for mode of hMAO-A inhibition: Lineweaver–Burk, alpha analysis; for Vmax of hMAO-A with increasing inhibitor (minimum and maximum average means): inhibitor 0 to IC50 × 4. The class given is biochemical. The procedure: The hMAO-A modes of inhibition by KKR21 and KKR11 were investigated using the Michaelis–Menten reaction kinetics and MAO-Glow™ assay. A negative control buffer and seven serially diluted LDS concentrations were prepared from a maximum final of 75 μM. Other negative control buffers and three different concentrations of each KKR were prepared to resemble IC50/4, IC50, and IC50 × 4 final concentrations (final KKR11 of 0.08, 0.31, and 1.24 μM, and final KKR21 of 0.005, 0.019, and 0.076 μM, respectively). Each KKR was mixed with the isozyme in a 2:1 ratio volume for a final concentration of 0.44 U/mL. The reactions were initiated by adding 37.5 μL of the prepared mixture to 12.5 μL LDS substrate in the 96-well plates. Opaque plates were incubated at 37 °C for 60 min. The enzymatic reaction was terminated by adding 50 μL RLDR to the plates and then was re-incubated for 30 min at RT. The generated ALU was read on the Bio-Tek Synergy HTX Multi-Reader.
The Vmax and Km were calculated from the averaged X and Y intercepts of Lineweaver–Burk (LWB) linear regressions that were analyzed from the Michaelis–Menten curve data. Vmax = 1/Y-intercept, Km = −1/X-intercept(2)
Inhibitor-constant (Ki) was calculated from Cheng–Prosuff’s equation Ki (comp) = IC50/(1+[S]/Km)(3)

Setting [3] is: competitive model, Ki = IC50/(1 + [S]/Km).

Broadly, the IC90 is the concentration at which the effect reaches the 90% level. As usually defined, the Ki is the dissociation constant of the complex between target and ligand, obtained from inhibition or displacement. As to `O=c1cc(-c2ccccc2)oc2cc(Cl)c(Cl)cc12` [KKR21, 6,7-dichloro-2-phenyl-4H-chromen-4-one], the “antiproliferative effect in screen” value in the test on PC3 cells was “no effects on any of the screened PCa cell models”. For the same compound, the IC90 at hMAO-A [1] is less than 100000 nM. Also, on hMAO-A [2] (Cheng–Prosuff's equation), the Ki is no more than 7.4 nM. In addition, on hMAO-A [2], the “Alpha parameter (mixed model of enzyme inhibition)” value is recorded as >>1; the “mode of hMAO-A inhibition” value is recorded as “reversible competitive inhibition”; the “Vmax of hMAO-A with increasing inhibitor (minimum and maximum average means)” value is 1.38 × 10^−6–1.43 × 10^−6 U/mL/h. Moreover, the Ki on hMAO-A [2] (setting [3]) is 1.7 nM.
Regarding `O=c1c(O)c(-c2ccccc2)oc2c(Cl)cc(Cl)cc12` [KKR7, 6,8-dichloro-3-hydroxy-2-phenyl-4H-chromen-4-one], the IC90 on hMAO-A [1] is less than 100000 nM.
With `COc1cc(O)c(C(=O)/C=C/c2ccc(Cl)c(Cl)c2)c(OC)c1` [KKR11, (E)-3-(3,4-dichlorophenyl)-1-(2-hydroxy-4,6-dimethoxyphenyl)prop-2-en-1-one], the IC90 at hMAO-A [1] was less than 100000 nM. Besides, the Ki on hMAO-A [2] (Cheng–Prosuff's equation) was no more than 7.4 nM. Further, on hMAO-A [2], the “Alpha parameter (mixed model of enzyme inhibition)” value is >>1; the “mode of hMAO-A inhibition” value was “reversible competitive inhibition”; the “Vmax of hMAO-A with increasing inhibitor (minimum and maximum average means)” value is 3 × 10^−6–4 × 10^−6 U/mL/h. Besides, the Ki on hMAO-A [2] (setting [3]) was determined as 7.4 nM.
For the compound `O=C(/C=C/c1ccccc1)c1cc(Cl)cc(Cl)c1O` [KKR20, (E)-1-(3,5-dichloro-2-hydroxyphenyl)-3-phenylprop-2-en-1-one], at hMAO-A [1], the IC90 was less than 100000 nM.
`COc1cc(OC)c2c(=O)c(O)c(/C=C/c3cc(OC)c(OC)c(OC)c3)oc2c1` [KKR2A, (E)-3-hydroxy-5,7-dimethoxy-2-(3,4,5-trimethoxystyryl)-4H-chromen-4-one]: the “antiproliferative effect in screen” value in the test on PC3 cells is “no effects on any of the screened PCa cell models”. For the same compound, the IC90 at hMAO-A [1] was less than 100000 nM.

Source of the values: article PMC7249060, “The Antiproliferative Effects of Flavonoid MAO Inhibitors on Prostate Cancer Cells” (Molecules, 2020).
